Values quoted from earlier work, collected in patent US20020051978A1, “Methods and compositions for the identification, assessment, prevention and therapy of human cancers” (priority 2000, published 2002).

System: tumor
Conditions: animal models; cited from earlier work

CC(=O)O[C@@]12CO[C@@H]1C[C@H](O)[C@@]1(C)C(=O)[C@H](O)C3=C(C)[C@@H](OC(=O)[C@H](O)[C@@H](NC(=O)OC(C)(C)C)c4ccccc4)C[C@@](O)([C@@H](OC(=O)c4ccccc4)[C@H]21)C3(C)C [Taxotere, docetaxel]
anti-tumor activity: good anti-tumor activity
